According to ChEMBL document CHEMBL4507279, “Data for DCP probe BI-9627” (2021):

What was measured:
[1] = biological target: Ribosomal protein S6 kinase alpha-4 (Homo sapiens) (UniProt O75676); conditions: Compound concentration 1000.0 nM
[2] = biological target: Casein kinase II subunit alpha' (Homo sapiens) (UniProt P19784); conditions: Compound concentration 1000.0 nM
[3] = biological target: Ribosomal protein S6 kinase alpha-2 (Homo sapiens) (UniProt Q15349); conditions: Compound concentration 1000.0 nM
[4] = biological target: Serine/threonine-protein kinase RIO1 (Homo sapiens) (UniProt Q9BRS2); conditions: Compound concentration 1000.0 nM
[5] = biological target: Macrophage-stimulating protein receptor (Homo sapiens) (UniProt Q04912); conditions: Compound concentration 1000.0 nM
[6] = biological target: Mitogen-activated protein kinase kinase kinase 2 (Homo sapiens) (UniProt Q9Y2U5); conditions: Compound concentration 1000.0 nM
[7] = biological target: G protein-coupled receptor kinase 4 (Homo sapiens) (UniProt P32298); conditions: Compound concentration 1000.0 nM
[8] = biological target: Rho-associated protein kinase 1 (Homo sapiens) (UniProt Q13464); conditions: Compound concentration 1000.0 nM
[9] = biological target: T1, Muscarinic acetylcholine receptor M1 (Homo sapiens) (UniProt P11229); conditions: Compound concentration 10.0 uM
T1 sequence (whole entry): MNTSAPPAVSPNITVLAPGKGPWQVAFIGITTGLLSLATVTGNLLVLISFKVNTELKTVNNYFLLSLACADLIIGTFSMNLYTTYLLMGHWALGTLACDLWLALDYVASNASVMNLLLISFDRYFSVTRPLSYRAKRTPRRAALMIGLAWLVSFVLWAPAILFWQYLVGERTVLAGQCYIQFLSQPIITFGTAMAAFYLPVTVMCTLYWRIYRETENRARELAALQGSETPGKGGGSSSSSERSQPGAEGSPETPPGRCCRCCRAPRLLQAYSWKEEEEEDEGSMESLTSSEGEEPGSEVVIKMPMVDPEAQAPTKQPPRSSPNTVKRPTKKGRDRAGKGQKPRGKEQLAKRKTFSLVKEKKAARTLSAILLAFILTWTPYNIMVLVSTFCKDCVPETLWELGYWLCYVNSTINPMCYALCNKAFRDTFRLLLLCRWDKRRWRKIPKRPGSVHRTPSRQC

[10] = biological target: Tyrosine-protein kinase JAK1 (Homo sapiens) (UniProt P23458); conditions: Compound concentration 1000.0 nM
[11] = biological target: Homeodomain-interacting protein kinase 3 (Homo sapiens) (UniProt Q9H422); conditions: Compound concentration 1000.0 nM
[12] = biological target: Casein kinase I isoform alpha-like (Homo sapiens) (UniProt Q8N752); conditions: Compound concentration 1000.0 nM
[13] = biological target: Dual specificity protein kinase TTK (Homo sapiens) (UniProt P33981); conditions: Compound concentration 1000.0 nM
[14] = biological target: Serine/threonine-protein kinase WNK4 (Homo sapiens) (UniProt Q96J92); conditions: Compound concentration 1000.0 nM
[15] = biological target: Serine/threonine-protein kinase Sgk2 (Homo sapiens) (UniProt Q9HBY8); conditions: Compound concentration 1000.0 nM
[16] = biological target: Mitogen-activated protein kinase kinase kinase kinase 5 (Homo sapiens) (UniProt Q9Y4K4); conditions: Compound concentration 1000.0 nM
[17] = biological target: T2, Alpha-1D adrenergic receptor (Homo sapiens) (UniProt P25100); conditions: Compound concentration 10.0 uM
T2 sequence (whole entry): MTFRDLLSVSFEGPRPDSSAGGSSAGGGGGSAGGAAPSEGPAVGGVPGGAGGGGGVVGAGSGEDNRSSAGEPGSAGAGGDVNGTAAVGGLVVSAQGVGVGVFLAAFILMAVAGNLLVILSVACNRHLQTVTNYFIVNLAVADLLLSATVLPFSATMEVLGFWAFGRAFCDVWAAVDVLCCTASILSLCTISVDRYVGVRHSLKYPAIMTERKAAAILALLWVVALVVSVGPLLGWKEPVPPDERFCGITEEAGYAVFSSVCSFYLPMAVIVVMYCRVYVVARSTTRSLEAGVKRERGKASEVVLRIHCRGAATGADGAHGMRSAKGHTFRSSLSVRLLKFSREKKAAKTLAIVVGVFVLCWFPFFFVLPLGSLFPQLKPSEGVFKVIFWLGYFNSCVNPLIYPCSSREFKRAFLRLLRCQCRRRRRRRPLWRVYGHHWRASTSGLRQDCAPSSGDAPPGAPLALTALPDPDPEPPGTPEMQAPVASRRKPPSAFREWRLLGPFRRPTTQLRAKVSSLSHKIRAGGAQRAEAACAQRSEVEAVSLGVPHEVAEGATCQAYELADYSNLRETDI

[18] = biological target: Serine/threonine-protein kinase 38 (Homo sapiens) (UniProt Q15208); conditions: Compound concentration 1000.0 nM
Sequence of Serine/threonine-protein kinase 38 (Homo sapiens) (Q15208 2-465 limits assumed): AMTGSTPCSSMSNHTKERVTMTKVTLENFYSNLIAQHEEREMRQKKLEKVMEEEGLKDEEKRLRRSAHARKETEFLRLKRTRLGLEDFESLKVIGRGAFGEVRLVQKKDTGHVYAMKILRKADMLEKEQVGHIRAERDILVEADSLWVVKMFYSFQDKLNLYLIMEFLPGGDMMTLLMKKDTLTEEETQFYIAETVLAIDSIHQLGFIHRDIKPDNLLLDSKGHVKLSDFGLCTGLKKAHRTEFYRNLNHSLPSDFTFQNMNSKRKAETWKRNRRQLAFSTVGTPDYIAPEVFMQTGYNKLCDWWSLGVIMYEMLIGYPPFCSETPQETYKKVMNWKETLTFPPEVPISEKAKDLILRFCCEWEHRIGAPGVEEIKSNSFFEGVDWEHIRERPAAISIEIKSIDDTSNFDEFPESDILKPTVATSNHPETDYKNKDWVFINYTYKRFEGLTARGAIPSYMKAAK

[19] = biological target: RAC-beta serine/threonine-protein kinase (Homo sapiens) (UniProt P31751); conditions: Compound concentration 1000.0 nM
[20] = biological target: Casein kinase I isoform epsilon (Homo sapiens) (UniProt P49674); conditions: Compound concentration 1000.0 nM
[21] = biological target: Death-associated protein kinase 3 (Homo sapiens) (UniProt O43293); conditions: Compound concentration 1000.0 nM
Sequence of Death-associated protein kinase 3 (Homo sapiens) (O43293 whole entry, looked up): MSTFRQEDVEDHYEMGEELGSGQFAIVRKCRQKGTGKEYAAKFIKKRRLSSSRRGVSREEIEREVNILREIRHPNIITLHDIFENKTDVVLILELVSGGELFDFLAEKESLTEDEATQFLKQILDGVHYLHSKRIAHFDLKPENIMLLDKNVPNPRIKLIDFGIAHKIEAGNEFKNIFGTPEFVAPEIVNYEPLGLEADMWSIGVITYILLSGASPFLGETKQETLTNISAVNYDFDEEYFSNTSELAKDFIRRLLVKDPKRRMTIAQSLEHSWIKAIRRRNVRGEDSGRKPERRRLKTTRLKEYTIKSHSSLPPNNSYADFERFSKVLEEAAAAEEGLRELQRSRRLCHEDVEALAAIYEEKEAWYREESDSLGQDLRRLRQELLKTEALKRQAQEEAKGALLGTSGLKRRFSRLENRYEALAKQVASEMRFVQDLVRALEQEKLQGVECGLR

[22] = tested on: ALK tyrosine kinase receptor (Homo sapiens), Q9UM73 [C1156Y]; conditions: Compound concentration 1000.0 nM
Sequence of ALK tyrosine kinase receptor (Homo sapiens), Q9UM73 [C1156Y] (Q9UM73 whole entry C1156Y, looked up): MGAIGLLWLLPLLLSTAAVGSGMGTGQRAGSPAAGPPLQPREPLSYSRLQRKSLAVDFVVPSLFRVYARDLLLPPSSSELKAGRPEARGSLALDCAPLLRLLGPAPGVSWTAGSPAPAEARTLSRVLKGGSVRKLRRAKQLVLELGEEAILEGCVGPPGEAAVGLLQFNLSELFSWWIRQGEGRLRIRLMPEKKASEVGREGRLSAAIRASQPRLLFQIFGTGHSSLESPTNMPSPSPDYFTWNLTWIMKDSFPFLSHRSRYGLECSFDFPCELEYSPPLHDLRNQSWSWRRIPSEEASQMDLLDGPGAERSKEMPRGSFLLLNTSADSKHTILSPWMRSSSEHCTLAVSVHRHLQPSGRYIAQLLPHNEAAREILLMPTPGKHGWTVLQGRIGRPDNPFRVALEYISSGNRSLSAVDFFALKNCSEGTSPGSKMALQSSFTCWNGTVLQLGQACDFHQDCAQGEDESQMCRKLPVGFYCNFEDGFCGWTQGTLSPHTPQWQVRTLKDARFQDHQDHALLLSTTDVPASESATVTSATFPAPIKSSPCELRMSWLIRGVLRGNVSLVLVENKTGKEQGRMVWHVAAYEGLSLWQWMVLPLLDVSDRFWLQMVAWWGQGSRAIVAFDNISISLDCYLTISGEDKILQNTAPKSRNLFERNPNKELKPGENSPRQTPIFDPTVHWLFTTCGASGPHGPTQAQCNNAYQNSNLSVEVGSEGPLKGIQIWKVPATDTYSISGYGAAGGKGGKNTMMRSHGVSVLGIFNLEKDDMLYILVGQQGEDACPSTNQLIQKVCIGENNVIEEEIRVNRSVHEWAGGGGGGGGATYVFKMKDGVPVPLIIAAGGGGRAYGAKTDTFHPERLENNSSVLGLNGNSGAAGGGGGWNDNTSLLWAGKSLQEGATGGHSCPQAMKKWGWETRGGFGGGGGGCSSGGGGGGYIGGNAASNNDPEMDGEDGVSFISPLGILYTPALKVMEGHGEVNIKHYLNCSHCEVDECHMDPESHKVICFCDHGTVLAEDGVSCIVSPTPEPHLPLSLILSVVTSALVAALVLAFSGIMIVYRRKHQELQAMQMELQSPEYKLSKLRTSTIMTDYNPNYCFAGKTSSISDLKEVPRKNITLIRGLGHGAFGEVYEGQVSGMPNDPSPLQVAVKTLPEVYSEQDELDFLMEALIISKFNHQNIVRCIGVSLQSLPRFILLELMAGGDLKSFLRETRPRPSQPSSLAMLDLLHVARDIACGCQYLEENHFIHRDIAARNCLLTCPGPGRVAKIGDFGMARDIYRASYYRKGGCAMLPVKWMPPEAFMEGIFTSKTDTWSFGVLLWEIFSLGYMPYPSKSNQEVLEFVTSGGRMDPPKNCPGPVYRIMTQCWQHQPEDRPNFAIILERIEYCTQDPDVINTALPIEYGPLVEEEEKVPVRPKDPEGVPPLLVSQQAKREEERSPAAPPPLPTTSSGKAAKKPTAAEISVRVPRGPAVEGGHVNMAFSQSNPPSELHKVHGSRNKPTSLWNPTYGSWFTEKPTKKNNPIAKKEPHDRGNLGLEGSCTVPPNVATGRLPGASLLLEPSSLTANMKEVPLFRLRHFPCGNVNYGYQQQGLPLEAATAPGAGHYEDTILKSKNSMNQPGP

[23] = biological target: Proto-oncogene tyrosine-protein kinase ROS (Homo sapiens) (UniProt P08922); conditions: Compound concentration 1000.0 nM
[24] = biological target: Tyrosine-protein kinase SYK (Homo sapiens) (UniProt P43405); conditions: Compound concentration 1000.0 nM
[25] = biological target: Tyrosine-protein kinase receptor Tie-1 (Homo sapiens) (UniProt P35590); conditions: Compound concentration 1000.0 nM
[26] = biological target: Serine/threonine-protein kinase PAK 3 (Homo sapiens) (UniProt O75914); conditions: Compound concentration 1000.0 nM
Sequence of Serine/threonine-protein kinase PAK 3 (Homo sapiens) (O75914 whole entry, looked up): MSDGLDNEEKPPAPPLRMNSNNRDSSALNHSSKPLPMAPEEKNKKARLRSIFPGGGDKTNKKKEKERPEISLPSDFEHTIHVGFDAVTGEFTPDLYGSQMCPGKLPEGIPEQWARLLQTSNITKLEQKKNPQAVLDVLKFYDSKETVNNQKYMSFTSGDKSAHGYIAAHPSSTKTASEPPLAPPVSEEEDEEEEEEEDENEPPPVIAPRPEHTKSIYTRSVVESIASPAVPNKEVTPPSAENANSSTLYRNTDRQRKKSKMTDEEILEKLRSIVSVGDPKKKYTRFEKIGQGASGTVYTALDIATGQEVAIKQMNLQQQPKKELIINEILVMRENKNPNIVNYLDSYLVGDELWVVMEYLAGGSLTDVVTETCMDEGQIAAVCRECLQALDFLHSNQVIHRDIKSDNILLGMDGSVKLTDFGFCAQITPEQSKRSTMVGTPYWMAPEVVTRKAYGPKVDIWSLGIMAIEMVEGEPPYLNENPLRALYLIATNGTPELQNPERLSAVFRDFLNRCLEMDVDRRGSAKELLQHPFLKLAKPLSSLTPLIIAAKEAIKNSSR

[27] = biological target: Serine/threonine-protein kinase Nek6 (Homo sapiens) (UniProt Q9HC98); conditions: Compound concentration 1000.0 nM
[28] = biological target: Tyrosine-protein kinase Tec (Homo sapiens) (UniProt P42680); conditions: Compound concentration 1000.0 nM
[29] = biological target: Ribosomal protein S6 kinase alpha-5 (Homo sapiens) (UniProt O75582); conditions: Compound concentration 1000.0 nM
[30] = biological target: Tyrosine-protein kinase TXK (Homo sapiens) (UniProt P42681); conditions: Compound concentration 1000.0 nM
Sequence of Tyrosine-protein kinase TXK (Homo sapiens) (P42681 whole entry): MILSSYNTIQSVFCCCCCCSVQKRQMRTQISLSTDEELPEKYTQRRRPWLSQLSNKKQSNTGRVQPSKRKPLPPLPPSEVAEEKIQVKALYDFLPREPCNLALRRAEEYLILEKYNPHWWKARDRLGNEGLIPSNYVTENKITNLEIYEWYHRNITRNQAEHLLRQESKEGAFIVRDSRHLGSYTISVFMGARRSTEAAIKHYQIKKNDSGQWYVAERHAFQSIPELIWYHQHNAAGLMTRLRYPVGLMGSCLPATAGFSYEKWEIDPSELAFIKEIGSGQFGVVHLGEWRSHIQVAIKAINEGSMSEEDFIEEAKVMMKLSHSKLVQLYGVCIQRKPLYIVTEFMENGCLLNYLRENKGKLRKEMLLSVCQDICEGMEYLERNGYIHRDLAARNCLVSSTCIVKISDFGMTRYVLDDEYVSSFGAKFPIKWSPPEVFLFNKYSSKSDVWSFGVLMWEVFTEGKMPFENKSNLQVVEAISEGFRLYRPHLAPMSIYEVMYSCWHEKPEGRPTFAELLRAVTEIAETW

[31] = biological target: Serine/threonine-protein kinase 33 (Homo sapiens) (UniProt Q9BYT3); conditions: Compound concentration 1000.0 nM

Sequence of Ribosomal protein S6 kinase alpha-4 (Homo sapiens) (O75676 whole entry, looked up): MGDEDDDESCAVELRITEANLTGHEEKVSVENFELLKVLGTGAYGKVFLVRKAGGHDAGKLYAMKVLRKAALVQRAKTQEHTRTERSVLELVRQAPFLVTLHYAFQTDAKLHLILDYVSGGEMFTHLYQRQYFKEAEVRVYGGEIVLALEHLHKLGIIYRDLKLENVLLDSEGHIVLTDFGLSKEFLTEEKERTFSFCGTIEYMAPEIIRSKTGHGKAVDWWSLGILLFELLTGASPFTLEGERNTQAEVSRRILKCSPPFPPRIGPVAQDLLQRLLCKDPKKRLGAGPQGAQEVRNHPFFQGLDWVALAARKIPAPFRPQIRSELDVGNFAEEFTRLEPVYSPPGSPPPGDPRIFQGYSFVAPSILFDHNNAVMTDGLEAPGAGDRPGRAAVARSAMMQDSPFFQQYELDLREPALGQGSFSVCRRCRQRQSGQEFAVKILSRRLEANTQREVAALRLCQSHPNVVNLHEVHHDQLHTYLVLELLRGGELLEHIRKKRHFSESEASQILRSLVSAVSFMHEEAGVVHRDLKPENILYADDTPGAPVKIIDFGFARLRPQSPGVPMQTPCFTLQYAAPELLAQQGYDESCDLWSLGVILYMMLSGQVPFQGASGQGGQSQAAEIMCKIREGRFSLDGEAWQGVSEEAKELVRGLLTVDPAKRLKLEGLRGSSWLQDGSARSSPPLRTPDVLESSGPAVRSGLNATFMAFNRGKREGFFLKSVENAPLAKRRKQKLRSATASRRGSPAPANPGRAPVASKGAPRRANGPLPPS
Sequence of Casein kinase II subunit alpha' (Homo sapiens) (P19784 whole entry, looked up): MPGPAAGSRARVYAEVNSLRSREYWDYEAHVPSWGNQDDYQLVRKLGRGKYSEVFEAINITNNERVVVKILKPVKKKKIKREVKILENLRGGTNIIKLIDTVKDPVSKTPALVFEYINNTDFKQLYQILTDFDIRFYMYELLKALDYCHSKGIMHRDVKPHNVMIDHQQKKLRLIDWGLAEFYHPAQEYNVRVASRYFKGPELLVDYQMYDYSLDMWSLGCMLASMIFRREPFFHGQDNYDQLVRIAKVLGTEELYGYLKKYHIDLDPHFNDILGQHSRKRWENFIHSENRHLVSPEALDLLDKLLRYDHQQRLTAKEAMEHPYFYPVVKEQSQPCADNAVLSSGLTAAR

| SMILES | residual activity [1] | residual activity [2] | residual activity [3] | residual activity [4] | residual activity [5] | residual activity [6] | residual activity [7] | residual activity [8] | inhibition [9] | residual activity [10] | residual activity [11] | residual activity [12] | residual activity [13] | residual activity [14] | residual activity [15] | residual activity [16] | inhibition [17] | residual activity [18] | residual activity [19] | residual activity [20] | further results |
| --- | --- | --- | --- | --- | --- | --- | --- | --- | --- | --- | --- | --- | --- | --- | --- | --- | --- | --- | --- | --- | --- |
| CC(=O)N1CCC(c2ccc(C(=O)NC3=NCCN3)cc2C(F)(F)F)CC1 [BI 0054] | 100% | 100% | 100% | 100% | 80% | 100% | 100% | 0.5% | -7.86% | 100% | 72% | 100% | 100% | 100% | 100% | 100% | 50% | 85% | 91% | 100% | residual activity [21]: 84%; residual activity [22]: 100%; residual activity [23]: 99%; residual activity [24]: 100%; residual activity [25]: 82%; residual activity [26]: 100%; residual activity [27]: 100%; residual activity [28]: 100%; residual activity [29]: 100%; residual activity [30]: 82%; residual activity [31]: 100% |
| CC(=O)N1CCC(c2ccc(C(=O)NC(=N)N)cc2C(F)(F)F)CC1 [BI 9627] | 100% | 100% | 90% | 100% | 97% | 100% | 100% | 87% | 12.4% | 100% | 82% | 100% | 100% | 100% | 100% | 100% | 50% | 96% | 99% | 100% | residual activity [21]: 100%; residual activity [22]: 100%; residual activity [23]: 100%; residual activity [24]: 100%; residual activity [25]: 100%; residual activity [26]: 84%; residual activity [27]: 100%; residual activity [28]: 100%; residual activity [29]: 100%; residual activity [30]: 100%; residual activity [31]: 100% |
